Measurements published in patent US11478482B2 (NATIONAL UNIVERSITY CORPORATION TOKAI NATIONAL HIGHER …, priority 2018, dated 2022).
Counter-ions that a name gives are not always drawn.

Assays:
MK-801-treated mice [1] = test: Social behavior test in MK-801-treated mice; assay type: in vivo
Description: Before conducting the experiment, test mice were kept in breeding cages one by one for 2 days. On the third day, mice that had been normally group-reared in another breeding cage were placed as invading mice into the cages of the test mice, and social behaviors of the test mice, such as tracking and sniffing, were measured for 5 minutes (Ibi et al., 2010).

MK-801-treated mice [2] = test: Visual discrimination test in MK-801-treated mice
C57BL/6 mice = test: Spontaneous locomotor activity; assay type: in vivo
Description: (§1) Mice were placed one by one in measurement cages (25 cm×30 cm×18 cm). Immediately after the placement, spontaneous locomotor activity of mice was measured using a measurement device equipped with infrared light (Brain Science Idea, Osaka, Japan) (Ibi et al., 2010).

ARHGAP10 mutant mice = test: Meth-induced visual discrimination learning impairment in ARHGAP10 mutant mice; assay type: in vivo; settings: patient-type ARHGAP10 mutant mice
[3] = test system: Meth-treated mice (C57BL/6); test: Meth-induced visual discrimination learning impairment in C57BL/6 mice (wild type); assay type: in vivo; settings: for Meth-induced (1.0 mg/kg) visual discrimination impairment: meth-treated C57BL/6 mice
MK-801-treated mice [4] = test: MK-801-induced hyperactivity (hypermobility); assay type: in vivo; settings: MK-801 0.3 mg/kg
Description: as §1
After 5 minutes, MK-801 (0.3 mg/kg) was intraperitoneally administered. The amount of locomotor activity started to be measured immediately after the administration (FIG. 6, panel A).

[5] = test system: dopaminergic neurons induced from iPS cells of patients with ARHGAP10 mutation; test: Neurite length of iPS cell-derived dopaminergic neurons (IncuCyte NeuroTrack); assay type: cell-based, human; settings: 72 hours after addition of inhibitor
Description: Dopaminergic neurons were induced from iPS cells of healthy subjects and patients with ARGHAP10 mutation. The induction method was performed according to a method already published (Transl Psychiatry. 2018 Jul. 19; 8(1): 129; and patent application PCT/JP2018/015304). To give an overview, iPS cells were cultured in an iPS cell medium supplemented with SB431542 (3 μM), CHIR99021 (3 μM), and dorsomorphin (3 μM) for 7 days (day 0 to day 7). The cultured cells were then dispersed with TrypLE™ select (Thermo Fisher Scientific Inc.) and passed through a cell strainer. […]
Dopaminergic progenitor cells were seeded onto a culture dish coated with poly-L-ornithine/laminin/fibronectin (poly-L-ornithine, laminin, and fibronectin), and an Rho kinase inhibitor was added simultaneously. […] The length of neurites after 72 hours was automatically measured with IncuCyte NeuroTrack (registered trademark).
Dopaminergic neurons were induced from iPS cells derived from healthy subjects and patients with ARHGAP10 mutation. […] The length of neurites was automatically detected and measured with IncuCyte (registered trademark) NeuroTrack (produced by Essen Bioscience).
The length of neurites (mm) per mm^2 was calculated for each field of view, and analysis was performed for 18 fields of view in each group. […]

[6] = fasudil 20 mg/kg i.p., monohydrochloride hemihydrate
[7] = fasudil 20 mg/kg i.p., listed as Fasudil, monohydrochloride hemihydrate

Q: What does the source list for C[C@]12N[C@H](Cc3ccccc31)c1ccccc12 [MK-801, (+)-MK-801 maleate]?
A: time of social behavior (MK-801-treated mice [1]; MK-801 0.1 mg/kg i.p., compared with control mice): significantly reduced; correct response rate in the visual discrimination learning test (MK-801-treated mice [2]; MK-801 0.1 mg/kg i.p., C57BL/6 mice, saline-treated 90%): about 70%

Q: O=S(=O)(c1cccc2cnccc12)N1CCCNCC1 [fasudil, hexahydro-1-(5-isoquinolinesulfonyl)-1H-1,4-diazepine monohydrochloride hemihydrate] was tested. Which Spontaneous locomotor activity (C57BL/6 mice; fasudil 20 mg/kg i.p., Table 1) did it give?
A: ±

Q: And the Spontaneous locomotor activity (C57BL/6 mice; fasudil 20 mg/kg i.p., versus saline-treated mice)?
A: same level of spontaneous locomotor activity as the saline-treated mice

Q: What about the Spontaneous locomotor activity (C57BL/6 mice; fasudil 30 mg/kg i.p., versus saline-treated mice, listed as Fasudil, monohydrochloride hemihydrate) of the same compound?
A: Decreased

Q: And the Spontaneous locomotor activity (C57BL/6 mice; fasudil 30 mg/kg i.p., versus saline-treated mice, monohydrochloride hemihydrate)?
A: significant decrease

Q: What about the “Meth-induced (0.3 mg/kg) visual discrimination impairment” value (ARHGAP10 mutant mice; fasudil 3 mg/kg i.p.) of the same compound?
A: Improved

Q: What about the “Meth-induced (0.3 mg/kg) visual discrimination impairment” value (ARHGAP10 mutant mice; fasudil 10 mg/kg i.p.) of the same compound?
A: Improved

Q: And the “Meth-induced (0.3 mg/kg) visual discrimination impairment” value (ARHGAP10 mutant mice; [6])?
A: significantly improved

Q: What about the “Meth-induced (1.0 mg/kg) visual discrimination impairment” value ([3]; fasudil 3 mg/kg i.p.) of the same compound?
A: Improvement

Q: What about the “Meth-induced (1.0 mg/kg) visual discrimination impairment” value ([3]; fasudil 10 mg/kg i.p., listed as Fasudil, monohydrochloride hemihydrate) of the same compound?
A: Improved

Q: What about the “Meth-induced (1.0 mg/kg) visual discrimination impairment” value ([3]; fasudil 10 mg/kg i.p., monohydrochloride hemihydrate) of the same compound?
A: improved

Q: And the “Meth-induced (1.0 mg/kg) visual discrimination impairment” value [3, 7]?
A: Improved

Q: What about the “Meth-induced (1.0 mg/kg) visual discrimination impairment” value [3, 6] of the same compound?
A: improved

Q: What about the MK-801-induced hypermobility (MK-801-treated mice [4]; fasudil 10 mg/kg i.p.) of the same compound?
A: ±

Q: And the MK-801-induced hypermobility (MK-801-treated mice [4]; [7])?
A: Improved

Q: What about the MK-801-induced hypermobility (MK-801-treated mice [4]; [6]) of the same compound?
A: significantly inhibited

Q: And the “MK-801-induced social behavior disorder” value (MK-801-treated mice [1]; fasudil 5 mg/kg i.p., MK-801 0.1 mg/kg)?
A: ±

Q: And the “MK-801-induced social behavior disorder” value (MK-801-treated mice [1]; fasudil 10 mg/kg i.p., MK-801 0.1 mg/kg, listed as Fasudil, monohydrochloride hemihydrate)?
A: Improved

Q: What about the “MK-801-induced social behavior disorder” value (MK-801-treated mice [1]; fasudil 10 mg/kg i.p., MK-801 0.1 mg/kg, monohydrochloride hemihydrate) of the same compound?
A: returned to the same level as the social behavior in control mice

Q: And the “MK-801-induced social behavior disorder” value (MK-801-treated mice [1]; fasudil 20 mg/kg i.p.)?
A: ±

Q: What about the length of neurites [5] of the same compound?
A: improving effects

Q: And the “MK-801-induced (1.0 mg/kg) visual discrimination disorder” value (MK-801-treated mice [2]; fasudil 3 mg/kg i.p.)?
A: ±

Q: What about the “MK-801-induced (1.0 mg/kg) visual discrimination disorder” value (MK-801-treated mice [2]; [7]) of the same compound?
A: Improved

Q: What about the “MK-801-induced (1.0 mg/kg) visual discrimination disorder” value (MK-801-treated mice [2]; [6]) of the same compound?
A: returned to the control level

Q: And the “test completion rate, latency to correct response, latency to obtain the reward” value (MK-801-treated mice [2]; fasudil 3, 10 or 20 mg/kg i.p., MK-801-treated mice)?
A: none of the groups showed significant changes

Q: Methamphetamine hydrochloride was tested. Which “correct response rate in the visual discrimination learning test” value ([3]; meth 1.0 mg/kg, C57BL/6 mice, saline-treated about 90%) did it give?
A: about 70%
